Assay results published in patent publication US20220017572A1, “GEMINOID LIPOPEPTIDE COMPOUNDS AND THEIR USES” (Erasmus University Medical Center Rotterdam, priority 2016, published 2022).
Non-standard residues stand in square brackets, D forms with d. C12 = C12 alkyl chain at peptide end (geminoid); C16 = C16 alkyl chain at peptide end (geminoid); C20 = C20 alkyl chain at peptide end (geminoid)

tested on: DENV2 protease replicon; test: DENV2 protease replicon assay; assay type: cell-based; conditions: lowest concentration with observed activity in replicon assay

**Q.** “C16-AKKK-C16: geminoid in shorthand Cp-Zn-Cq, peptide SEQ ID NO: 71” was tested. Which “Replicon activity [μM] (1)” value did it give?
**A.** Its value is 1.0 µM.

**Q.** How did the “Replicon activity [μM] (1)” value turn out when “C8-AKKK-C8: alkylated peptide in shorthand Cp-Zn-Cq, peptide SEQ ID NO: 71 ({C8 alkyl}-AKKK-{C8 alkyl})” was run?
**A.** The value was 10.0 µM.

**Q.** Which “Replicon activity [μM] (1)” value does the source give for “C8-ARRK-C8: alkylated peptide in shorthand Cp-Zn-Cq, peptide SEQ ID NO: 76 ({C8 alkyl}-ARRK-{C8 alkyl})” here?
**A.** Its value is 10.0 µM.

**Q.** Which “Replicon activity [μM] (1)” value does the source give for “C16-FFQK-C16: geminoid in shorthand Cp-Zn-Cq, peptide SEQ ID NO: 82” here?
**A.** Its value is 3.0 µM.

**Q.** Which “Replicon activity [μM] (1)” value does the source give for “C16-LLQK-C16: geminoid in shorthand Cp-Zn-Cq, peptide SEQ ID NO: 81” here?
**A.** The value was 0.3 µM.

**Q.** “C12-RARK-C12: geminoid in shorthand Cp-Zn-Cq, peptide SEQ ID NO: 77” was tested. Which “Replicon activity [μM] (1)” value did it give?
**A.** The value was 1.0 µM.

**Q.** How did the “Replicon activity [μM] (1)” value turn out when “C20-AKKK-C20: geminoid in shorthand Cp-Zn-Cq, peptide SEQ ID NO: 71” was run?
**A.** The value was 3.0 µM.

**Q.** How did the “Replicon activity [μM] (1)” value turn out when “C16-LLKK-C16: geminoid in shorthand Cp-Zn-Cq, peptide SEQ ID NO: 66” was run?
**A.** Its value is 3.0 µM.

**Q.** For “C16-ALKK-C16: geminoid in shorthand Cp-Zn-Cq, peptide SEQ ID NO: 65”, which “Replicon activity [μM] (1)” value is on record?
**A.** Its value is 10.0 µM.

**Q.** Which “Replicon activity [μM] (1)” value does the source give for “C16-ARRK-C16: geminoid in shorthand Cp-Zn-Cq, peptide SEQ ID NO: 76” here?
**A.** Its value is 0.3 µM.

**Q.** With “C16-LKRR-C16: geminoid in shorthand Cp-Zn-Cq, peptide SEQ ID NO: 83” as the substance, how does the “Replicon activity [μM] (1)” value read?
**A.** Its value is 3.0 µM.

**Q.** Which “Replicon activity [μM] (1)” value does the source give for “C3-LKKK-C3: alkylated peptide in shorthand Cp-Zn-Cq, peptide SEQ ID NO: 72” here?
**A.** Its value is 10.0 µM.

**Q.** How did the “Replicon activity [μM] (1)” value turn out when “C16-D-LKAKG-C16: geminoid in shorthand Cp-Zn-Cq, D-peptide, SEQ ID NO: 88 (C16-[dL][dK][dA][dK]G-C16)” was run?
**A.** The value was 3.0 µM.

**Q.** For “C16-QRKR-C16: geminoid in shorthand Cp-Zn-Cq, peptide SEQ ID NO: 85”, which “Replicon activity [μM] (1)” value is on record?
**A.** Its value is 3.0 µM.

**Q.** How did the “Replicon activity [μM] (1)” value turn out when “C16-D-AKAKG-C16: geminoid in shorthand Cp-Zn-Cq, D-peptide, SEQ ID NO: 87 (C16-[dA][dK][dA][dK]G-C16)” was run?
**A.** Its value is 3.0 µM.

**Q.** “C12-FKKK-C12: geminoid in shorthand Cp-Zn-Cq, peptide SEQ ID NO: 73” was tested. Which “Replicon activity [μM] (1)” value did it give?
**A.** Its value is 10.0 µM.

**Q.** “C16-AKAKS-C16: geminoid in shorthand Cp-Zn-Cq, peptide SEQ ID NO: 89” was tested. Which “Replicon activity [μM] (1)” value did it give?
**A.** Its value is 1.0 µM.

**Q.** How did the “Replicon activity [μM] (1)” value turn out when “C16-D-LKAK-L-S-C16: geminoid in shorthand Cp-Zn-Cq, D-LKAK with L-S, SEQ ID NO: 90 (C16-[dL][dK][dA][dK]S-C16)” was run?
**A.** Its value is 3.0 µM.

**Q.** “C16-LAKK-C16: geminoid in shorthand Cp-Zn-Cq, peptide SEQ ID NO: 63” was tested. Which “Replicon activity [μM] (1)” value did it give?
**A.** The value was 5.0 µM.

**Q.** With “C8-FKKK-C8: alkylated peptide in shorthand Cp-Zn-Cq, peptide SEQ ID NO: 73 ({C8 alkyl}-FKKK-{C8 alkyl})” as the substance, how does the “Replicon activity [μM] (1)” value read?
**A.** The value was 10.0 µM.

**Q.** With “C16-FLKK-C16: geminoid in shorthand Cp-Zn-Cq, peptide SEQ ID NO: 67” as the substance, how does the “Replicon activity [μM] (1)” value read?
**A.** Its value is 3.0 µM.

**Q.** For “C3-ARRK-C3: alkylated peptide in shorthand Cp-Zn-Cq, peptide SEQ ID NO: 76 ({C3 alkyl}-ARRK-{C3 alkyl})”, which “Replicon activity [μM] (1)” value is on record?
**A.** The value was 3.0 µM.

**Q.** For “C16-FAKK-C16: geminoid in shorthand Cp-Zn-Cq, peptide SEQ ID NO: 64”, which “Replicon activity [μM] (1)” value is on record?
**A.** Its value is 3.0 µM.

**Q.** Which “Replicon activity [μM] (1)” value does the source give for “C20-FKKK-C20: geminoid in shorthand Cp-Zn-Cq, peptide SEQ ID NO: 73 ({C20 alkyl}-FKKK-{C20 alkyl})” here?
**A.** The value was 0.9 µM.

**Q.** With “C16-GLKR-C16: geminoid in shorthand Cp-Zn-Cq, peptide SEQ ID NO: 84” as the substance, how does the “Replicon activity [μM] (1)” value read?
**A.** Its value is 3.0 µM.

**Q.** For “C20-LKKK-C20: geminoid in shorthand Cp-Zn-Cq, peptide SEQ ID NO: 72”, which “Replicon activity [μM] (1)” value is on record?
**A.** Its value is 1.0 µM.
